In the Deep4Chem optical property database:
“And” between values parts separate entries of the source, which are not always exact repeats. Equal values may be shown once. Values belong to the compound of their own block, whether it stands above or below them.

Assay: solvent given as SMILES

- absorption maximum (in ClCCl): 426 nm
SMILES: C[Si](C)(C)C#Cc1cc(C#C[Si](C)(C)C)c2ccc3c(C(=O)c4ccccc4)cc(C#C[Si](C)(C)C)c4ccc1c2c43

- absorption maximum (in O): 342 nm
SMILES: Nc1ccc2ccc([O-])cc2c1

- absorption maximum (in ClCCl): 731 nm
SMILES: O=c1c2ccccc2c2nc3cc4c(C#C[Si](C5CCCCC5)(C5CCCCC5)C5CCCCC5)c5cc6nc7c8ccccc8c(=O)c8ccccc8c7nc6cc5c(C#C[Si](C5CCCCC5)(C5CCCCC5)C5CCCCC5)c4cc3nc2c2ccccc12

- absorption maximum (in ClC(Cl)Cl): 456 nm
SMILES: COc1ccc2c(C=C(C#N)C#N)cc3ccc4cc(C=C(C#N)C#N)c5ccc(OC)cc5c4c3c2c1

- absorption maximum (in C1CCCCC1): 342 nm
- absorption maximum (in C1CCOC1): 338 nm
- absorption maximum (in CC#N): 336 nm
- absorption maximum (in CCOC(C)=O): 339 nm
- absorption maximum (in CS(C)=O): 334 nm
- absorption maximum (in ClC(Cl)Cl): 340 nm
SMILES: N#Cc1cc2ccccc2oc1=O

- absorption maximum (in C1CCOC1): 367 nm
SMILES: N#Cc1ccc(/C=C/C(F)(F)F)c(N)c1

- absorption maximum (in CCCCCCC): 446 nm
SMILES: c1ccc2c3c(ccc2c1)-c1cccc2cc4ccccc4c-3c12

- absorption maximum (in CC1CCCO1): 598 nm
SMILES: CC1=CC(C)=[N+]2C1=C(c1ccc(C)cc1)c1c(C)cc(/C=C/c3ccc4ccc5cccc6ccc3c4c56)n1[B-]2(F)F

- absorption maximum (in CCO): 355 nm
SMILES: CCOC(=O)c1cc(C(=O)OCC)c2cc(OC)ccc2n1

- absorption maximum (in CS(C)=O): 400 nm
SMILES: Cc1cccn2c1cc1c3ccccc3nc(-c3ccco3)c12

- absorption maximum (in C1COCCO1): 358 nm
- absorption maximum (in CC#N): 359 nm
- absorption maximum (in CO): 362 nm
- absorption maximum (in ClCCl): 362 nm
SMILES: COC(=O)c1nc2cnc(N(C)C)nc2n1Cc1ccccc1

- absorption maximum (in C1CCCCC1): 429 nm
- absorption maximum (in C1CCOC1): 404 nm
- absorption maximum (in C1COCCO1): 387 nm
- absorption maximum (in CC#N): 393 nm and 363 nm
- absorption maximum (in CCCCCC): 428 nm and 427 nm
- absorption maximum (in CO): 391 nm
- absorption maximum (in ClC(Cl)Cl): 414 nm and 388 nm
- absorption maximum (in ClCCl): 408 nm
SMILES: F[B-]1(F)n2c(nc(-c3ccccc3)c2-c2ccccc2)-c2cccc[n+]21

- absorption maximum (in ClCCl): 426 nm
- absorption maximum (in O): 394 nm
SMILES: N#CC(C#N)=Cc1ccc(-c2ccc(-c3nc4ccccc4s3)c(O)c2)o1

- absorption maximum (in C1CCCCC1): 299 nm
SMILES: C=Cc1cc(OC)cc(OC)c1

- absorption maximum (in ClCCl): 566 nm
SMILES: c1ccc(Cc2c3ccc(=[N+]4CCCCC4)cc-3oc3cc(N4CCCCC4)ccc23)cc1

- absorption maximum (in ClC(Cl)Cl): 524 nm
SMILES: COc1ccc(N(c2ccc(OC)cc2)c2ccc(-c3ccc(C=C(C#N)C#N)o3)cc2)cc1

- absorption maximum (in C1CCCCC1): 289 nm
SMILES: c1ccc(-c2ccc(-c3ccc4c(c3)CCO4)cc2)cc1

- absorption maximum (in C1CCOC1): 387 nm
SMILES: O=P1(c2ccccc2)C(c2ccc(C3=Cc4ccccc4P3(=O)c3ccccc3)cc2)=Cc2ccccc21 (stereo unspecified)

- absorption maximum (in C1CCCCC1): 316 nm
- absorption maximum (in C1CCOC1): 319 nm
- absorption maximum (in CC#N): 320 nm
- absorption maximum (in CCO): 322 nm
- absorption maximum (in CO): 320 nm
- absorption maximum (in ClC(Cl)Cl): 325 nm
SMILES: CCCCCCOc1ccc(-c2cnc(-c3nnc(-c4ccc(OCCCCCC)cc4)o3)o2)cc1

- absorption maximum (in ClCCl): 324 nm
SMILES: CCOC(=O)c1c(-c2cc3ccccc3oc2=O)nn(-c2cccc(F)c2)c1C(=O)OCC

- absorption maximum (in C1CCOC1): 335 nm
SMILES: C(=C1c2ccccc2CCc2ccccc21)c1ccc(-c2ccc(C=C3c4ccccc4CCc4ccccc43)cc2)cc1

- absorption maximum (in ClCCl): 365 nm
SMILES: CCCCC(CC)COc1ccc2nc(-c3ccc(-c4ccc(OC)cc4)s3)sc2c1 (stereo unspecified)

- absorption maximum (in C1COCCO1): 313 nm
- absorption maximum (in CC#N): 313 nm
- absorption maximum (in CO): 318 nm
- absorption maximum (in ClCCl): 311 nm
SMILES: N#Cc1nc2c(OCc3ccccc3)nc(N)nc2n1Cc1ccccc1

- absorption maximum (in ClCCl): 491 nm
SMILES: Cc1ccc2nc3cc4c5c(cccc5c3nc2c1)C(c1ccccc1)=C(c1ccccc1)O4

More lines, now with the values behind:

SMILES: c1ccc(N(c2ccccc2)c2ccc(-c3cnc(-c4ccncc4)s3)cc2)cc1
- absorption maximum (in CO): 403 nm

SMILES: c1ccc(-c2nc3c(ccc4[nH]ccc43)o2)cc1
- absorption maximum (in C1CCCCC1): 331 nm
- absorption maximum (in C1COCCO1): 333 nm
- absorption maximum (in CC#N): 320 nm
- absorption maximum (in CO): 325 nm
- absorption maximum (in Cc1ccccc1): 322 nm
- absorption maximum (in O): 321 nm

SMILES: N#Cc1c(N2CCCCC2)cc(-c2ccccc2)c2c1C(=O)c1ccccc1-2
- absorption maximum (in C1CCOC1): 348 nm

SMILES: CCCCCCCCC1(CCCCCCCC)c2cc(-c3ccc(C(F)(F)F)cc3)ccc2-c2ccc(N(c3ccc(-n4c5ccccc5c5ccccc54)cc3)c3ccc4c(c3)C(CCCCCCCC)(CCCCCCCC)c3cc(-c5ccc(C(F)(F)F)cc5)ccc3-4)cc21
- absorption maximum (in C1CCOC1): 375 nm
- absorption maximum (in C1COCCO1): 374 nm
- absorption maximum (in CC#N): 370 nm
- absorption maximum (in CC(C)=O): 371 nm
- absorption maximum (in CCCCCC): 380 nm
- absorption maximum (in CCCCOCCCC): 379 nm
- absorption maximum (in CCN(CC)CC): 376 nm
- absorption maximum (in CCOC(C)=O): 372 nm
- absorption maximum (in CCOCC): 374 nm
- absorption maximum (in CN(C)C=O): 373 nm
- absorption maximum (in CS(C)=O): 371 nm
- absorption maximum (in Cc1ccccc1): 379 nm
- absorption maximum (in ClC(Cl)Cl): 382 nm
- absorption maximum (in ClCCl): 378 nm
- absorption maximum (in c1ccccc1): 378 nm

SMILES: c1cc2ccc3cc4cccc5ccc6cc(c1)c2c3c6c54
- absorption maximum (in ClCCl): 433 nm

SMILES: Cc1ccc(-c2cc(/C=C/c3ccc(N(c4ccccc4)c4ccccc4)cc3)c(-c3ccc(C)cc3)cc2/C=C/c2ccc(N(c3ccccc3)c3ccccc3)cc2)cc1
- absorption maximum (in ClCCl): 410 nm

SMILES: c1ccc(-c2ccc(-c3ccccc3)cc2)cc1
- absorption maximum (in C1CCOC1): 281 nm
- absorption maximum (in C1COCCO1): 276 nm
- absorption maximum (in CCO): 280 nm

SMILES: CCCCCCc1ccc(-n2c3c(c4c2c2c(n4-c4ccc(CCCCCC)cc4)-c4cccc(OC)c4NB2c2ccccc2)B(c2ccccc2)Nc2c(OC)cccc2-3)cc1
- absorption maximum (in Cc1ccccc1): 382 nm

SMILES: CCOC(=O)c1c2c3c(ccc(F)c3c3cc4ccccc4cc13)N(C)C2=O
- absorption maximum (in CC#N): 410 nm

SMILES: CCCCCCCCCCOc1cc2cc(C#Cc3ccc(/C=C(\C#N)C(=O)O)cc3)c(=O)oc2cc1OCCCCCCCCCC
- absorption maximum (in CC#N): 398 nm

SMILES: Oc1cccc(/N=C/c2ccccc2Oc2ccccc2)c1
- absorption maximum (in C1CCCCC1): 322 nm
- absorption maximum (in C1CCOC1): 327 nm
- absorption maximum (in C1COCCO1): 325 nm
- absorption maximum (in CC#N): 328 nm
- absorption maximum (in CC(C)CO): 323 nm
- absorption maximum (in CC(C)O): 324 nm
- absorption maximum (in CCCCC): 318 nm
- absorption maximum (in CCCCCC): 320 nm
- absorption maximum (in CCCCCCCCO): 329 nm
- absorption maximum (in CCCCCCCO): 325 nm
- absorption maximum (in CCCCCCO): 321 nm
- absorption maximum (in CCCCO): 331 nm
- absorption maximum (in CCCCOC(C)=O): 326 nm
- absorption maximum (in CCCO): 328 nm
- absorption maximum (in CCO): 327 nm
- absorption maximum (in CCOC(C)=O): 321 nm
- absorption maximum (in CCOCC): 327 nm
- absorption maximum (in CN(C)C=O): 329 nm
- absorption maximum (in CO): 328 nm
- absorption maximum (in CS(C)=O): 329 nm
- absorption maximum (in Cc1ccccc1): 324 nm
- absorption maximum (in Cc1ccccc1C): 327 nm
- absorption maximum (in ClC(Cl)Cl): 328 nm
- absorption maximum (in ClCCl): 325 nm
- absorption maximum (in N#Cc1ccccc1): 344 nm
- absorption maximum (in OCCO): 328 nm
- absorption maximum (in c1ccccc1): 328 nm

SMILES: Oc1ccc(C2=N[N+]3=Cc4c(ccc5ccccc45)O[B-]3(c3ccc([B-]45OC(c6ccc(O)cc6)=N[N+]4=Cc4c(ccc6ccccc46)O5)cc3)O2)cc1 (stereo unspecified)
- absorption maximum (in C1CCOC1): 424 nm

SMILES: CCCCn1c2ccccc2c2ccc3c4cc(-c5ccc(OC)cc5)ccc4n(CCCC)c3c21
- absorption maximum (in ClC(Cl)Cl): 333 nm

SMILES: O=Cc1ccc(C2=C3C=c4c(oc5ccccc45)=[N+]3[B-](F)(F)n3c2cc2c4ccccc4oc23)cc1
- absorption maximum (in C1CCCCC1): 592.5 nm
- absorption maximum (in C1CCOC1): 589 nm
- absorption maximum (in CC#N): 585.5 nm
- absorption maximum (in CCOC(C)=O): 587 nm
- absorption maximum (in CN(C)C=O): 589 nm
- absorption maximum (in CO): 583 nm
- absorption maximum (in Cc1ccccc1): 597 nm
- absorption maximum (in ClCCl): 593.5 nm

SMILES: CCC1=C(C2=C(C3=C(CC)S(=O)(=O)c4cc(-c5ccc(C)s5)ccc43)C(F)(F)C(F)(F)C2(F)F)c2ccc(-c3ccc(C)s3)cc2S1(=O)=O
- absorption maximum (in C1COCCO1): 374 nm

SMILES: Cc1cc(-n2c3ccccc3c3cc(C#N)ccc32)ccc1-c1ccc(S(=O)(=O)c2ccccc2)cc1C
- absorption maximum (in Cc1ccccc1): 341 nm

SMILES: CCCC1(CCC)c2ccccc2-c2ccc(-c3ccc(OC)cc3)cc21
- absorption maximum (in C1CCCCC1): 315 nm

SMILES: CCN(CC)c1ccc2cc(-c3nc4ccccc4n3-c3ccccc3)c(=O)oc2c1
- absorption maximum (in ClCCl): 410 nm

SMILES: CC(C)[Si]1(C(C)C)c2ccccc2-c2ccc(N(C)C)cc21
- absorption maximum (in C1CCCCC1): 323 nm
- absorption maximum (in CC#N): 321 nm
- absorption maximum (in CCO): 319 nm
- absorption maximum (in CCOCC): 318 nm
- absorption maximum (in CS(C)=O): 324 nm
- absorption maximum (in ClCCl): 323 nm
- absorption maximum (in c1ccccc1): 323 nm

SMILES: CCCN1c2ccccc2Sc2cc(/C=C\c3cc(=O)oc4cc(NC(=O)OCC)ccc34)ccc21
- absorption maximum (in ClC(Cl)Cl): 422 nm

SMILES: C#Cn1c(-c2cc(-c3nc4ccccc4n3C#C)cc(-c3nc4ccccc4n3C#C)c2)nc2ccccc21
- absorption maximum (in ClCCl): 305.5 nm

SMILES: COc1ccccc1C1=[N+]2C(=Nc3c(-c4ccccc4)cc(-c4ccccc4OC)n3[B-]2(F)F)C(c2ccccc2)=C1
- absorption maximum (in Cc1ccccc1): 640 nm

SMILES: C(S/C=C/c1ccc(/C=C/SC=C2CCCCCCC2)cc1)=C1CCCCCCC1
- absorption maximum (in ClCCl): 355 nm

SMILES: CCC(CC)COC1=CC2=C3c4cc(OCC(CC)CC)c(-c5cccs5)n4[B-](F)(F)[n+]4nnn(c43)[B-](F)(F)[N+]2=C1c1cccs1
- absorption maximum (in C1CCOC1): 784 nm
- absorption maximum (in ClCCl): 795 nm

SMILES: c1ccc(-c2nc(-c3ccccc3)nc(-c3cc(-n4c5ccccc5c5ncccc54)c(-n4c5ccccc5c5ccccc54)c(-n4c5ccccc5c5ncccc54)c3)n2)cc1
- absorption maximum (in Cc1ccccc1): 376.56 nm

SMILES: COc1ccc(C2=CC3=C(c4c(C)cc(C)cc4C)c4cc(-c5ccc(OC)cc5)c(-c5ccc(OC)cc5)n4[B-](F)(F)[N+]3=C2c2ccc(OC)cc2)cc1
- absorption maximum (in C1CCCCC1): 621 nm
- absorption maximum (in C1CCOC1): 621 nm
- absorption maximum (in CC#N): 608 nm
- absorption maximum (in Cc1ccccc1): 625 nm
- absorption maximum (in ClCCl): 616 nm

SMILES: CC1(C)c2ccccc2N(c2ccccc2)c2ccc(-c3ccc(C(=O)c4ccc(-c5ccc6c(c5)C(C)(C)c5ccccc5N6c5ccccc5)cc4)cc3)cc21
- absorption maximum (in Cc1ccccc1): 377.59 nm

SMILES: COc1ccc(-c2cc(-c3ccccc3)nn2C)cc1
- absorption maximum (in ClCCl): 257 nm
